Values quoted from earlier work, collected in article PMC12682717, “Radiolabelling and bioequivalence of modified Tamoxifen solid lipid nanoparticles as a targeted chemotherapeutic drug” (Drug Delivery and Translational Research, 2025).
Where a name gives a salt, the structure may show the parent alone.

Legend:
[1] = design: method as in PMID 32151063, PMID 37906415; details: patients
[2] = no reference given

## CC/C(=C(\c1ccccc1)c1ccc(OCCN(C)C)cc1)c1ccccc1 [TAM, Tamoxifen citrate]
[1]
  side effect: depression, irritability or vaginal dryness: 35%
  side effect: hot flashes: 64%
  side effect: mood swings: 6%
  side effect: sleep issues: 36%
  side effect: weight gain: 6%
[2]
  biopharmaceutical categorization system (BCS) class: class II
